Measurements reported in US9956168B2, “Extended release drug-delivery contact lenses and methods of making” (Mercy Medical Research Institute, priority 2013, dated 2018).

Test system: MKP-1
Assay: In vitro effective dose study (Western blots for MKP-1 on HeLa cells)
Type: cell-based
Conditions: HeLa cells incubated with varying concentration; extrapolated

CC(=O)OCC(=O)[C@@]1(O)CC[C@H]2[C@@H]3CCC4=CC(=O)C=C[C@]4(C)[C@H]3[C@@H](O)C[C@@]21C [Prednisolone-21-acetate]
in vitro effective dose: 5-10 ppm
